Experimental data reported in ChEMBL document CHEMBL4665787, “Bifunctional and Unusual Amino Acid β- or γ-Ester Prodrugs of Nucleoside Analogues for Improved Affinity to ATB and Enhanced Metabolic Stability: An Application to Floxuridine” (J Med Chem, 2020).
Active and inactive are the calls of the source. The rule behind the calls is not given here.

What was measured:
[1] = target: T1, Sodium- and chloride-dependent neutral and basic amino acid transporter B(0+) (Homo sapiens, UniProt Q9UN76); assay: Substrate activity at SLC6A14 (unknown origin) expressed in Xenopus laevis oocytes assessed as inhibition of glycine uptake incubated for 10 mins by HPLC/MS/MS analysis; type: cell-based, Oocyte
T1 sequence (Q9UN76 whole entry): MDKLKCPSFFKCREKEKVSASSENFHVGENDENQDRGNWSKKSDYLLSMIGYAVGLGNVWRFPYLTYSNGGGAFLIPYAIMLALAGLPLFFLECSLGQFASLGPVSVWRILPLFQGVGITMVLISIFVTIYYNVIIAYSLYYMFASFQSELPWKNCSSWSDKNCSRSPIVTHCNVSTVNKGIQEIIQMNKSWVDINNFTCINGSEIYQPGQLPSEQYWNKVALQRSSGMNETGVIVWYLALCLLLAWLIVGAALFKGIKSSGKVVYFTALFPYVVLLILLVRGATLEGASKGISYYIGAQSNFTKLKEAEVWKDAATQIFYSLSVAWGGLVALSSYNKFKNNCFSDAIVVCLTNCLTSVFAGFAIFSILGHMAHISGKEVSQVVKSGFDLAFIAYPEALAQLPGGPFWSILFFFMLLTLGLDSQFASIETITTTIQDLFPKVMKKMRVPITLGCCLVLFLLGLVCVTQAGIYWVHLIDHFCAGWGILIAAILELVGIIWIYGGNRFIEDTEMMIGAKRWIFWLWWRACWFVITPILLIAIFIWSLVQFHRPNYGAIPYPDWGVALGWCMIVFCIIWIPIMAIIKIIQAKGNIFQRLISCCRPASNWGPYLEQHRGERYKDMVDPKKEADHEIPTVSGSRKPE

[2] = target: T1, Sodium- and chloride-dependent neutral and basic amino acid transporter B(0+); assay: Substrate activity at SLC6A14 (unknown origin) expressed in Xenopus laevis oocytes assessed as ABT0+ mediated drug uptake at 0.5 mM incubated for 10 mins by HPLC analysis; type: ADME, cell-based; conditions: oocyte, 500 µM
[3] = Drug uptake in Xenopus laevis oocytes at 0.5 mM incubated for 10 mins by HPLC analysis; type: ADME, cell-based; conditions: oocyte, 500 µM
[4] = target: T2, Solute carrier family 15 member 1 (Homo sapiens, UniProt P46059); assay: Substrate activity at PEPT1 (unknown origin) expressed in MDCK cells assessed as inhibition of gly-sar uptake incubated for 10 mins by HPLC/MS/MS analysis; type: cell-based
T2 sequence (P46059 whole entry): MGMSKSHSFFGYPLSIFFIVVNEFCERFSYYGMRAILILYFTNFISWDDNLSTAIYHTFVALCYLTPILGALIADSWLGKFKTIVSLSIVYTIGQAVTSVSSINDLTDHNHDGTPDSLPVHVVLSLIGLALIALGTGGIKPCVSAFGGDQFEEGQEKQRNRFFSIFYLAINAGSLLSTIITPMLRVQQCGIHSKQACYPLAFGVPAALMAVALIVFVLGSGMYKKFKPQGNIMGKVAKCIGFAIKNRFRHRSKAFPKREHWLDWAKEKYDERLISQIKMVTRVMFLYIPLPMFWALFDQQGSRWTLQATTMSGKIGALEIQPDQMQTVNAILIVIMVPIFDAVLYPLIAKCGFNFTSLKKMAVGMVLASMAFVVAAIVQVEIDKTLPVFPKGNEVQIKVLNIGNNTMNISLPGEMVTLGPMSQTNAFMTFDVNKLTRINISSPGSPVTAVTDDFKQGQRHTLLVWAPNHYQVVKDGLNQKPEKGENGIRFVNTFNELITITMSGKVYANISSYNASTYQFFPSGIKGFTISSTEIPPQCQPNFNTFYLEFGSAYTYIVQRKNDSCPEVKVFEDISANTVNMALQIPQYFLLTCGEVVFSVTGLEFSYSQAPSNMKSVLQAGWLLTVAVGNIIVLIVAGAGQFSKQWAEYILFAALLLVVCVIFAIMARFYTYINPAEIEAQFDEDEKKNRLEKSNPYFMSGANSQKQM

[5] = target: T2, Solute carrier family 15 member 1; assay: Substrate activity at PEPT1 (unknown origin) expressed in MDCK cells assessed as PEPT1 mediated drug uptake at 0.5 mM incubated for 10 mins by HPLC analysis; type: ADME, cell-based; conditions: 500 µM
[6] = Drug uptake in MDCK cells incubated for 10 mins by HPLC analysis; type: ADME, cell-based, Canis lupus familiaris; conditions: dog, 500 µM, dose 0.5 mM
[7] = Selectivity ratio of substrate activity at SLC6A14 (unknown origin) expressed in Xenopus laevis oocytes assessed as ABT0+ mediated drug uptake to drug uptake in Xenopus laevis oocytes; set-up: species or system Oocyte
[8] = Selectivity ratio of substrate activity at PEPT1 (unknown origin) expressed in MDCK cells assessed as PEPT1 mediated drug uptake to drug uptake in MDCK cells
[9] = Half life of compound in PBS buffer at pH 7.4 at 200 uM by HPLC analysis; type: physicochemical
[10] = Half life in rat plasma at 200 uM measured up to 120 mins by HPLC-MS/MS analysis; type: ADME, cell-free
thymidine phosphorylase = assay: Half life of compound in thymidine phosphorylase buffer at 300 uM by HPLC analysis; type: physicochemical
[11] = Half life of compound in human ZR-75-1 cell homogenate; type: ADME, tissue-based
[12] = Half life of compound in human MIA PaCa-2 cell homogenate; type: ADME, tissue-based
[13] = Half life of compound in human MDA-MB-231 cell homogenate; type: ADME, tissue-based
ZR-75-1 = assay: Potency index, ratio of FUdR GI50 to test compound GI50 for growth inhibition of human ZR-75-1 cells; type: functional
MIA PaCa-2 = assay: Potency index, ratio of FUdR GI50 to test compound GI50 for growth inhibition of human MIA-PaCa-2 cells; type: functional
MDA-MB-231 = assay: Potency index, ratio of FUdR GI50 to test compound GI50 for growth inhibition of human MDA-MB-231 cells; type: functional
[14] = target: T3, Sodium- and chloride-dependent neutral and basic amino acid transporter B(0+) (Homo sapiens) (UniProt Q9UN76); assay: Substrate activity at SLC6A14 (unknown origin) expressed in Xenopus laevis oocytes assessed as inhibition of drug uptake at 0.5 mM incubated for 10 mins in presence of glycine by HPLC analysis relative to control; type: cell-based; conditions: Oocyte
T3 sequence (whole entry): T1 sequence (Q9UN76 whole entry)

[15] = target: T3, Sodium- and chloride-dependent neutral and basic amino acid transporter B(0+) (Homo sapiens); assay: Substrate activity at SLC6A14 (unknown origin) expressed in Xenopus laevis oocytes assessed as increase in ABT0+ mediated drug uptake at 1 mM in presence of Na+ ion by HPLC analysis; type: cell-based; conditions: Oocyte
[16] = target: T3, Sodium- and chloride-dependent neutral and basic amino acid transporter B(0+) (Homo sapiens); assay: Substrate activity at SLC6A14 (unknown origin) expressed in Xenopus laevis oocytes assessed as increase in ABT0+ mediated drug uptake at 1 mM in presence of Cl- ion by HPLC analysis; type: cell-based; conditions: Oocyte

N[C@@H](CC(=O)O[C@H]1C[C@H](n2cc(F)c(=O)[nH]c2=O)O[C@@H]1CO)C(=O)O
IC50 [1]: 1570 µM
Drug uptake [2]: 1.89 nmol/mg/min
Drug uptake [3]: 0.36 nmol/mg/min
IC50 [4]: 13900 µM
Drug uptake [5]: < 0.04 nmol/mg/min
Drug uptake [6]: < 0.04 nmol/mg/min
Ratio [7]: 5.25
Ratio [8]: 1
half-life at 200 µM [9]: 179 min
half-life at 200 µM [10]: 124 min
half-life at 300 µM (thymidine phosphorylase): 278 min
half-life [11]: 24.2 min
half-life [12]: 32.1 min
half-life [13]: 19.3 min
RatioGI50 (ZR-75-1): 7
RatioGI50 (MIA PaCa-2): 7
RatioGI50 (MDA-MB-231): 7

N[C@@H](CC(=O)OC[C@H]1O[C@@H](n2cc(F)c(=O)[nH]c2=O)C[C@@H]1OC(=O)C[C@H](N)C(=O)O)C(=O)O
IC50 [1]: 2980 µM
Drug uptake [2]: 1.12 nmol/mg/min
Drug uptake [3]: 0.34 nmol/mg/min
Drug uptake [5]: < 0.04 nmol/mg/min
Drug uptake [6]: < 0.04 nmol/mg/min
Ratio [7]: 3.29
Ratio [8]: 1
half-life at 200 µM [9]: 98.2 min
half-life at 200 µM [10]: 56.1 min
half-life at 300 µM (thymidine phosphorylase): 301 min
half-life [11]: 16.2 min
half-life [12]: 11.3 min
half-life [13]: 9.3 min
RatioGI50 (ZR-75-1): 7
RatioGI50 (MIA PaCa-2): 7
RatioGI50 (MDA-MB-231): 7

CC(C)[C@H](N)C(=O)OC[C@H]1O[C@@H](n2cc(F)c(=O)[nH]c2=O)C[C@@H]1O
IC50 [1]: 980 µM
Drug uptake [2]: 2.34 nmol/mg/min
Drug uptake [3]: 0.31 nmol/mg/min
IC50 [4]: 1120 µM
Drug uptake [5]: 1.78 nmol/mg/min
Drug uptake [6]: 0.41 nmol/mg/min
Ratio [7]: 7.55
Ratio [8]: 4.34
inhibition [14]: 50%
Activity [15]: Active
Activity [16]: Active
half-life at 200 µM [9]: 203 min
half-life at 200 µM [10]: 78.5 min
half-life at 300 µM (thymidine phosphorylase): 408 min
half-life [11]: 16.4 min
half-life [12]: 11.3 min
half-life [13]: 15.3 min
RatioGI50 (ZR-75-1): 7
RatioGI50 (MIA PaCa-2): 7
RatioGI50 (MDA-MB-231): 7

CC(C)[C@H](N)C(=O)OC[C@H]1O[C@@H](n2cc(F)c(=O)[nH]c2=O)C[C@@H]1OC(=O)[C@@H](N)C(C)C
IC50 [1]: 2010 µM
Drug uptake [2]: 1.03 nmol/mg/min
Drug uptake [3]: 0.37 nmol/mg/min
IC50 [4]: 2240 µM
Drug uptake [5]: 1.11 nmol/mg/min
Drug uptake [6]: 0.44 nmol/mg/min
Ratio [7]: 2.78
Ratio [8]: 2.63
half-life at 200 µM [9]: 106 min
half-life at 200 µM [10]: 37.8 min
half-life at 300 µM (thymidine phosphorylase): 257 min
half-life [11]: 6.7 min
half-life [12]: 8.4 min
half-life [13]: 10.1 min
RatioGI50 (ZR-75-1): 7
RatioGI50 (MIA PaCa-2): 7
RatioGI50 (MDA-MB-231): 7

N[C@@H](CCC(=O)OC[C@H]1O[C@@H](n2cc(F)c(=O)[nH]c2=O)C[C@@H]1OC(=O)CC[C@H](N)C(=O)O)C(=O)O
IC50 [1]: 2650 µM
Drug uptake [2]: 0.78 nmol/mg/min
Drug uptake [3]: 0.32 nmol/mg/min
Drug uptake [5]: < 0.04 nmol/mg/min
Drug uptake [6]: < 0.04 nmol/mg/min
Ratio [7]: 2.44
Ratio [8]: 1
half-life at 200 µM [9]: 109 min
half-life at 200 µM [10]: 67.9 min
half-life at 300 µM (thymidine phosphorylase): 235 min
half-life [11]: 14.3 min
half-life [12]: 17.5 min
half-life [13]: 21.1 min
RatioGI50 (ZR-75-1): 7
RatioGI50 (MIA PaCa-2): 7
RatioGI50 (MDA-MB-231): 7

N[C@@H](CCC(=O)O[C@H]1C[C@H](n2cc(F)c(=O)[nH]c2=O)O[C@@H]1CO)C(=O)O
IC50 [1]: 1840 µM
Drug uptake [2]: 1.04 nmol/mg/min
Drug uptake [3]: 0.28 nmol/mg/min
IC50 [4]: 13000 µM
Drug uptake [5]: < 0.04 nmol/mg/min
Drug uptake [6]: < 0.04 nmol/mg/min
Ratio [7]: 3.71
Ratio [8]: 1
half-life at 200 µM [9]: 183 min
half-life at 200 µM [10]: 97.4 min
half-life at 300 µM (thymidine phosphorylase): 289 min
half-life [11]: 7.9 min
half-life [12]: 10.2 min
half-life [13]: 8.3 min
RatioGI50 (ZR-75-1): 7
RatioGI50 (MIA PaCa-2): 7
RatioGI50 (MDA-MB-231): 7

CC(C)[C@H](N)C(=O)O[C@H]1C[C@H](n2cc(F)c(=O)[nH]c2=O)O[C@@H]1CO
IC50 [1]: 1630 µM
Drug uptake [2]: 1.56 nmol/mg/min
Drug uptake [3]: 0.39 nmol/mg/min
IC50 [4]: 1890 µM
Drug uptake [5]: 1.23 nmol/mg/min
Drug uptake [6]: 0.43 nmol/mg/min
Ratio [7]: 4
Ratio [8]: 2.86
half-life at 200 µM [9]: 187 min
half-life at 200 µM [10]: 65.3 min
half-life at 300 µM (thymidine phosphorylase): 368 min
half-life [11]: 9.2 min
half-life [12]: 12.2 min
half-life [13]: 14.9 min
RatioGI50 (ZR-75-1): 7
RatioGI50 (MIA PaCa-2): 7
RatioGI50 (MDA-MB-231): 7
